# From PubChem BioAssay (NCI)
#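 The compound was tested at five concentrations on cells cultured in 96-well plates, with a 48-hour exposure period. GI50: concentration for 50% inhibition of growth. At the TGI there is no net growth.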
# What was measured:
# Assay in all cases: DTP human tumour cell line panel, 48 h
# SN12C renal = test system: SN12C renal
# NCI-H226 lung = test system: NCI-H226 lung
# NCI-H23 lung = test system: NCI-H23 lung
# SK-MEL-28 melanoma = test system: SK-MEL-28 melanoma
# M14 melanoma = test system: M14 melanoma
# MDA-MB-231 breast = test system: MDA-MB-231 breast
# SF-295 CNS = test system: SF-295 CNS
# K-562 leukemia = test system: K-562 leukemia
# EKVX NSCLC = test system: EKVX NSCLC
# OVCAR-4 ovarian = test system: OVCAR-4 ovarian
# COLO 205 colon = test system: COLO 205 colon
# T-47D breast = test system: T-47D breast
# HCT-15 colon = test system: HCT-15 colon
# RPMI-8226 leukemia = test system: RPMI-8226 leukemia
# HCT-116 colon = test system: HCT-116 colon
# PC-3 prostate = test system: PC-3 prostate
# HT29 colon = test system: HT29 colon
# MDA-MB-435 = test system: MDA-MB-435
# NCI-H522 lung = test system: NCI-H522 lung
# SNB-19 CNS = test system: SNB-19 CNS
# SF-268 CNS = test system: SF-268 CNS
# SF-539 CNS = test system: SF-539 CNS
# OVCAR-5 ovarian = test system: OVCAR-5 ovarian
# NCI-H460 lung = test system: NCI-H460 lung
# HOP-62 NSCLC = test system: HOP-62 NSCLC
# SNB-75 CNS = test system: SNB-75 CNS
# OVCAR-3 ovarian = test system: OVCAR-3 ovarian
# RXF 393 renal = test system: RXF 393 renal
# OVCAR-8 ovarian = test system: OVCAR-8 ovarian
# UACC-62 melanoma = test system: UACC-62 melanoma
# HOP-92 NSCLC = test system: HOP-92 NSCLC
# CCRF-CEM leukemia = test system: CCRF-CEM leukemia
# TK-10 renal = test system: TK-10 renal
# SK-OV-3 ovarian = test system: SK-OV-3 ovarian
# HCC-2998 colon = test system: HCC-2998 colon
# CAKI-1 renal = test system: CAKI-1 renal
# 786-0 renal = test system: 786-0 renal
# SR leukemia = test system: SR leukemia
# SW-620 colon = test system: SW-620 colon
# DU-145 prostate = test system: DU-145 prostate
# MALME-3M melanoma = test system: MALME-3M melanoma
# U251 CNS = test system: U251 CNS
# BT-549 breast = test system: BT-549 breast
# A549 NSCLC = test system: A549 NSCLC
# NCI/ADR-RES ovarian = test system: NCI/ADR-RES ovarian
# ACHN renal = test system: ACHN renal
# KM12 colon = test system: KM12 colon
# HL-60(TB) leukemia = test system: HL-60(TB) leukemia
# UACC-257 melanoma = test system: UACC-257 melanoma
# HS 578T breast = test system: HS 578T breast
# LOX IMVI melanoma = test system: LOX IMVI melanoma
# SK-MEL-5 melanoma = test system: SK-MEL-5 melanoma
# MCF7 breast = test system: MCF7 breast
# MOLT-4 leukemia = test system: MOLT-4 leukemia
# IGROV1 ovarian = test system: IGROV1 ovarian
# UO-31 renal = test system: UO-31 renal
# SK-MEL-2 melanoma = test system: SK-MEL-2 melanoma
compound,measurement,setting,value
COc1cc2c(cc1OC)C(CCc1ccc(Cl)cc1)N(C)CC2 (centres undefined),GI50,SN12C renal,39.9 µM
same,TGI,SN12C renal,> 100 µM
same,GI50,NCI-H226 lung,58.6 µM
same,TGI,NCI-H226 lung,> 100 µM
same,GI50,NCI-H23 lung,30.1 µM
same,TGI,NCI-H23 lung,> 100 µM
same,GI50,SK-MEL-28 melanoma,20.1 µM
same,TGI,SK-MEL-28 melanoma,46.9 µM
same,GI50,M14 melanoma,17.3 µM
same,TGI,M14 melanoma,37.7 µM
same,GI50,MDA-MB-231 breast,16.3 µM
same,TGI,MDA-MB-231 breast,39.1 µM
same,GI50,SF-295 CNS,9.32 µM
same,TGI,SF-295 CNS,27 µM
same,GI50,K-562 leukemia,24.7 µM
same,TGI,K-562 leukemia,66.1 µM
same,GI50,EKVX NSCLC,16.7 µM
same,TGI,EKVX NSCLC,81 µM
same,GI50,OVCAR-4 ovarian,33.9 µM
same,TGI,OVCAR-4 ovarian,> 100 µM
same,GI50,COLO 205 colon,17.6 µM
same,TGI,COLO 205 colon,34.6 µM
same,GI50,T-47D breast,23.8 µM
same,TGI,T-47D breast,76.8 µM
same,GI50,HCT-15 colon,30.2 µM
same,TGI,HCT-15 colon,> 100 µM
same,GI50,RPMI-8226 leukemia,24.9 µM
same,TGI,RPMI-8226 leukemia,> 100 µM
same,GI50,HCT-116 colon,13.8 µM
same,TGI,HCT-116 colon,52.9 µM
same,GI50,PC-3 prostate,20.1 µM
same,TGI,PC-3 prostate,> 100 µM
same,GI50,HT29 colon,14.2 µM
same,TGI,HT29 colon,86 µM
same,GI50,MDA-MB-435,16.3 µM
same,TGI,MDA-MB-435,41.2 µM
same,GI50,NCI-H522 lung,20 µM
same,TGI,NCI-H522 lung,38.6 µM
same,GI50,SNB-19 CNS,37.1 µM
same,TGI,SNB-19 CNS,> 100 µM
same,GI50,SF-268 CNS,35 µM
same,TGI,SF-268 CNS,> 100 µM
same,GI50,SF-539 CNS,17.1 µM
same,TGI,SF-539 CNS,39 µM
same,GI50,OVCAR-5 ovarian,19.6 µM
same,TGI,OVCAR-5 ovarian,61.7 µM
same,GI50,NCI-H460 lung,17.8 µM
same,TGI,NCI-H460 lung,40.2 µM
same,GI50,HOP-62 NSCLC,32.9 µM
same,TGI,HOP-62 NSCLC,> 100 µM
same,GI50,SNB-75 CNS,11.9 µM
same,TGI,SNB-75 CNS,43.5 µM
same,GI50,OVCAR-3 ovarian,33.3 µM
same,TGI,OVCAR-3 ovarian,> 100 µM
same,GI50,RXF 393 renal,17.8 µM
same,TGI,RXF 393 renal,58.3 µM
same,GI50,OVCAR-8 ovarian,32.6 µM
same,TGI,OVCAR-8 ovarian,> 100 µM
same,GI50,UACC-62 melanoma,20.1 µM
same,TGI,UACC-62 melanoma,44.5 µM
same,GI50,HOP-92 NSCLC,13.6 µM
same,TGI,HOP-92 NSCLC,92.7 µM
same,GI50,CCRF-CEM leukemia,29.1 µM
same,TGI,CCRF-CEM leukemia,> 100 µM
same,GI50,TK-10 renal,17 µM
same,TGI,TK-10 renal,42.2 µM
same,GI50,SK-OV-3 ovarian,32.2 µM
same,TGI,SK-OV-3 ovarian,> 100 µM
same,GI50,HCC-2998 colon,16.4 µM
same,TGI,HCC-2998 colon,31.1 µM
same,GI50,CAKI-1 renal,10.7 µM
same,TGI,CAKI-1 renal,31.7 µM
same,GI50,786-0 renal,17.4 µM
same,TGI,786-0 renal,48.9 µM
same,GI50,SR leukemia,28.4 µM
same,TGI,SR leukemia,63.4 µM
same,GI50,SW-620 colon,19.3 µM
same,TGI,SW-620 colon,45.4 µM
same,GI50,DU-145 prostate,51.9 µM
same,TGI,DU-145 prostate,> 100 µM
same,GI50,MALME-3M melanoma,21.6 µM
same,TGI,MALME-3M melanoma,46.5 µM
same,GI50,U251 CNS,22.8 µM
same,TGI,U251 CNS,64.3 µM
same,GI50,BT-549 breast,33.5 µM
same,TGI,BT-549 breast,> 100 µM
same,GI50,A549 NSCLC,45.2 µM
same,TGI,A549 NSCLC,> 100 µM
same,GI50,NCI/ADR-RES ovarian,17.7 µM
same,TGI,NCI/ADR-RES ovarian,39.4 µM
same,GI50,ACHN renal,25.7 µM
same,TGI,ACHN renal,92 µM
same,GI50,KM12 colon,19.5 µM
same,TGI,KM12 colon,38.1 µM
same,GI50,HL-60(TB) leukemia,17.2 µM
same,TGI,HL-60(TB) leukemia,44.3 µM
same,GI50,UACC-257 melanoma,27.2 µM
same,TGI,UACC-257 melanoma,65.9 µM
same,GI50,HS 578T breast,18.3 µM
same,TGI,HS 578T breast,51.4 µM
same,GI50,LOX IMVI melanoma,15 µM
same,TGI,LOX IMVI melanoma,30.8 µM
same,GI50,SK-MEL-5 melanoma,14.4 µM
same,TGI,SK-MEL-5 melanoma,27.6 µM
same,GI50,MCF7 breast,21.2 µM
same,TGI,MCF7 breast,47 µM
same,GI50,MOLT-4 leukemia,35.7 µM
same,TGI,MOLT-4 leukemia,94.9 µM
same,GI50,IGROV1 ovarian,36.9 µM
same,TGI,IGROV1 ovarian,> 100 µM
same,GI50,UO-31 renal,20.6 µM
same,TGI,UO-31 renal,> 100 µM
same,GI50,SK-MEL-2 melanoma,19.7 µM
same,TGI,SK-MEL-2 melanoma,37.1 µM
